Source: US6413733B1, “Stabilized reagent and method for determining creatine kinase” (Roche Diagnostics GmbH, priority 1997, dated 2002)

System: G6P-DH
Experiment: Long-term stability G6P-DH, 10 mmol/l DTT compared to 1 mmol/l Na2SO3
Format: biochemical
Details: 10 mmol/l DTT, example 3
Method: For the determination 250 μl R1 is mixed with 10 μl sample, incubated for 5 minutes, the reaction is started with 50 μl R2 and the CK activity is measured after incubating for a further 1 minute. The CK or G6P-DH enzyme activity was determined after storage at 2 to 8° C. or 35° C. for various periods (table 1-3,FIGS. 1-3).
The reagent R was combined with the sample to be measured as described in example 1 and the corresponding enzyme activities were determined (table 5,FIG. 5).

Structure (SMILES): O[C@H](CS)[C@H](O)CS (racemic) [DTT, dithiothreitol, reference compound]
- G6P-DH activity (0 days at 2 to 8° C.): 4.67 U/ml
- G6P-DH activity relative to day 0 (0 days at 2 to 8° C.): 100.0%
- G6P-DH activity (55 days at 2 to 8° C.): 2.81 U/ml
- G6P-DH activity relative to day 0 (55 days at 2 to 8° C.): 60.2%
- G6P-DH activity (85 days at 2 to 8° C.): 2.69 U/ml
- G6P-DH activity relative to day 0 (85 days at 2 to 8° C.): 57.6%
- G6P-DH activity (114 days at 2 to 8° C.): 2.07 U/ml
- G6P-DH activity relative to day 0 (114 days at 2 to 8° C.): 44.4%
- G6P-DH activity (136 days at 2 to 8° C.): 1.55 U/ml
- G6P-DH activity relative to day 0 (136 days at 2 to 8° C.): 33.1%
- G6P-DH activity (192 days at 2 to 8° C.): 0.52 U/ml
- G6P-DH activity relative to day 0 (192 days at 2 to 8° C.): 11.1%
- G6P-DH activity (220 days at 2 to 8° C.): 0.29 U/ml
- G6P-DH activity relative to day 0 (220 days at 2 to 8° C.): 6.2%
